What all share (experiment): SelectScreen Kinase Profiling, single point inhibition and IC50 for off-target kinases
Common to all, as to assay type: biochemical

Assay [1] deals with off-target kinases (Homo sapiens, UniProt P06241).
Assay [2] concerns the target off-target kinases (Homo sapiens, UniProt P07949, G691S). As to conditions: RET G691S, mutant y, LanthaScreen Binding. For orientation: In TR-FRET formats the signal depends on donor and acceptor labels being close together.
Assay [3] addresses off-target kinases (Homo sapiens, UniProt P10721, T670I/V559D). As to conditions: KIT V559D T670I, LanthaScreen Binding.
The target in assay [4] is off-target kinases (Homo sapiens, UniProt P21802). Conditions: FGFR2, ZLYTE, ATP Km app.
For assay [5], the target named is T1, off-target kinases (Homo sapiens, UniProt Q8WXR4).
T1 sequence (Q8WXR4 1-1341): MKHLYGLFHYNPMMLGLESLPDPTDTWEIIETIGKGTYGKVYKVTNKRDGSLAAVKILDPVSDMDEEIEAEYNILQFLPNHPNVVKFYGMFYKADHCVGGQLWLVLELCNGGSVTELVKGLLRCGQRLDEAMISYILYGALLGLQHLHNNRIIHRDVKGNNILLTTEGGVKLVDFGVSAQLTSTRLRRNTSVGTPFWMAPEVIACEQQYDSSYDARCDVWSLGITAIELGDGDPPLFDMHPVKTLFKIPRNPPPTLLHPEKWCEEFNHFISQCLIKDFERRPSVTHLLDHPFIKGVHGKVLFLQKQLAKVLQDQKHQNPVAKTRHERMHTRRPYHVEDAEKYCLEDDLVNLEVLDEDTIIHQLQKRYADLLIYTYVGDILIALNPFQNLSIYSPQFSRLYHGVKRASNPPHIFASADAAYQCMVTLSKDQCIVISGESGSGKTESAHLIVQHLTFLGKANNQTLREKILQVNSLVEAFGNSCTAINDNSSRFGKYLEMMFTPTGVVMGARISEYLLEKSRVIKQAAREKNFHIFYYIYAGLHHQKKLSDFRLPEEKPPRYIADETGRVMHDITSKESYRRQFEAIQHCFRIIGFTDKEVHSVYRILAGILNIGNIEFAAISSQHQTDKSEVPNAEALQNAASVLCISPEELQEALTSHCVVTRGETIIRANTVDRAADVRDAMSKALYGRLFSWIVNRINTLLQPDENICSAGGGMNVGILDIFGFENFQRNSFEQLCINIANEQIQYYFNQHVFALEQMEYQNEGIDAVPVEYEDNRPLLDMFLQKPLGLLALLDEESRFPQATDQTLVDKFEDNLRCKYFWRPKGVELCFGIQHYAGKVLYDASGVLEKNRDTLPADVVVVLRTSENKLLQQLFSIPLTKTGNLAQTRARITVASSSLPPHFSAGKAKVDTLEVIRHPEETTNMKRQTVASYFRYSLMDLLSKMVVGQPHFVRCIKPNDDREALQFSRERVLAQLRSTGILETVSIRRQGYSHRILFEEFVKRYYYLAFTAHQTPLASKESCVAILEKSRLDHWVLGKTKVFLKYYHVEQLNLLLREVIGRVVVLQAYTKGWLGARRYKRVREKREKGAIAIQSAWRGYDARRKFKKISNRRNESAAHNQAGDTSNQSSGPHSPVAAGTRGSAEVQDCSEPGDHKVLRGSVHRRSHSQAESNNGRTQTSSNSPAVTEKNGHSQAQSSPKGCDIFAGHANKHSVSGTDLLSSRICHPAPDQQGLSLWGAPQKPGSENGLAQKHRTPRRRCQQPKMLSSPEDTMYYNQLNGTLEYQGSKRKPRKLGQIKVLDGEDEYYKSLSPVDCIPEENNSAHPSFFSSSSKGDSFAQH
As to conditions: MYO3B (MYO3 beta), LanthaScreen Binding.

Like-named read-outs stand apart in the source and are kept apart here.

Consider one compound from patent US11572590B2, “Methods for evaluating tumor cell spheroids using 3D microfluidic cell culture device” (Dana-Farber Cancer Institute, Inc., priority 2017, dated 2023).

Chain of off-target kinases (Homo sapiens, UniProt P07949, G691S) (P07949 29-1114 G691S): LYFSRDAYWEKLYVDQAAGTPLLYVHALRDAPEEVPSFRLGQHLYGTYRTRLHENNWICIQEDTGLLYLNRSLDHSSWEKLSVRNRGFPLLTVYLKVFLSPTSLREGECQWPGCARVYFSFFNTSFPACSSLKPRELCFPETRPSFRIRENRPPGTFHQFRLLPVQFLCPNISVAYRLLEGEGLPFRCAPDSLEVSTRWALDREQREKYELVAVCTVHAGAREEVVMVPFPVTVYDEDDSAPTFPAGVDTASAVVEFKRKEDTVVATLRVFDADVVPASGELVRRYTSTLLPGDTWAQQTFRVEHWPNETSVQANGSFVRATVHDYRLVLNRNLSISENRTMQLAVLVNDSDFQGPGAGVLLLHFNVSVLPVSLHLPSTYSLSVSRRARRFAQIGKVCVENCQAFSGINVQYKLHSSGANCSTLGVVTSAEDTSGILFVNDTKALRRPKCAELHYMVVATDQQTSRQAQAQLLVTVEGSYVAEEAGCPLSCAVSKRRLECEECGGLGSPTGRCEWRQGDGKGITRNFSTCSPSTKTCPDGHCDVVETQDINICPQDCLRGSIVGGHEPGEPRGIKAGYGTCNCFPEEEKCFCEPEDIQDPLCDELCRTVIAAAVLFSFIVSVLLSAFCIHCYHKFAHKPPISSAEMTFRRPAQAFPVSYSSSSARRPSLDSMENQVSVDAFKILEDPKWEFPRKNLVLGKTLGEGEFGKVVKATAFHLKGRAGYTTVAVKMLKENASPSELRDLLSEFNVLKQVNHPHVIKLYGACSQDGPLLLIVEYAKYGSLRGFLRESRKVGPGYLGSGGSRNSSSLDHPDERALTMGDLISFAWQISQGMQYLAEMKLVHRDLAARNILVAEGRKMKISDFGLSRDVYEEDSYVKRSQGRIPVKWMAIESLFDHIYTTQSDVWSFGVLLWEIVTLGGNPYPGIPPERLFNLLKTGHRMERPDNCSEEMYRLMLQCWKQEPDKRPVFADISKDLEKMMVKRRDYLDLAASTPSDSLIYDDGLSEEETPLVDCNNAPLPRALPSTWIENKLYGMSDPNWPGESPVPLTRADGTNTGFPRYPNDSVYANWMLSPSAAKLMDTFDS
Chain of off-target kinases (Homo sapiens, UniProt P21802) (P21802 22-821): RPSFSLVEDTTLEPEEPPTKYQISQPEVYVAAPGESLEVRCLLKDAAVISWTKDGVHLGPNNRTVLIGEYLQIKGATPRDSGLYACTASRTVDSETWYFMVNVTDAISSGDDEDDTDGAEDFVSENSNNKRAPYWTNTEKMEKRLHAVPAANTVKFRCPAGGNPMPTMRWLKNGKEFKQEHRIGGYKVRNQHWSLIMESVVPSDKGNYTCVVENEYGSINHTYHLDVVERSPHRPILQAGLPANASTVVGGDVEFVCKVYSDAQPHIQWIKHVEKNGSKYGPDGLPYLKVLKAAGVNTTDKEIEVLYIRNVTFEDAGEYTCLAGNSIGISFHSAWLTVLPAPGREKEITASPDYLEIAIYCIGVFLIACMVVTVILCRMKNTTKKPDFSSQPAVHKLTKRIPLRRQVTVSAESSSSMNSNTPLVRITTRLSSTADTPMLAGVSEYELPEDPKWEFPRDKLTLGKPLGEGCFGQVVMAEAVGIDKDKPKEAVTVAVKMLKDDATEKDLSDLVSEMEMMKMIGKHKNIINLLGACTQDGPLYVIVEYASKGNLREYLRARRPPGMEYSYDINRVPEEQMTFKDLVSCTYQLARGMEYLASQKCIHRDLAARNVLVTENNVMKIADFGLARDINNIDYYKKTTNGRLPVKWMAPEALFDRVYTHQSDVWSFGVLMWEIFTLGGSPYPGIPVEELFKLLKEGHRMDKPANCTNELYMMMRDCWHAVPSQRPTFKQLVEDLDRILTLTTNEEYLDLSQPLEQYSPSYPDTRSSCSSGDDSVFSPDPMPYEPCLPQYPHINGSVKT
Chain of off-target kinases (Homo sapiens, UniProt P10721, T670I/V559D) (P10721 26-976 V559D/T670I): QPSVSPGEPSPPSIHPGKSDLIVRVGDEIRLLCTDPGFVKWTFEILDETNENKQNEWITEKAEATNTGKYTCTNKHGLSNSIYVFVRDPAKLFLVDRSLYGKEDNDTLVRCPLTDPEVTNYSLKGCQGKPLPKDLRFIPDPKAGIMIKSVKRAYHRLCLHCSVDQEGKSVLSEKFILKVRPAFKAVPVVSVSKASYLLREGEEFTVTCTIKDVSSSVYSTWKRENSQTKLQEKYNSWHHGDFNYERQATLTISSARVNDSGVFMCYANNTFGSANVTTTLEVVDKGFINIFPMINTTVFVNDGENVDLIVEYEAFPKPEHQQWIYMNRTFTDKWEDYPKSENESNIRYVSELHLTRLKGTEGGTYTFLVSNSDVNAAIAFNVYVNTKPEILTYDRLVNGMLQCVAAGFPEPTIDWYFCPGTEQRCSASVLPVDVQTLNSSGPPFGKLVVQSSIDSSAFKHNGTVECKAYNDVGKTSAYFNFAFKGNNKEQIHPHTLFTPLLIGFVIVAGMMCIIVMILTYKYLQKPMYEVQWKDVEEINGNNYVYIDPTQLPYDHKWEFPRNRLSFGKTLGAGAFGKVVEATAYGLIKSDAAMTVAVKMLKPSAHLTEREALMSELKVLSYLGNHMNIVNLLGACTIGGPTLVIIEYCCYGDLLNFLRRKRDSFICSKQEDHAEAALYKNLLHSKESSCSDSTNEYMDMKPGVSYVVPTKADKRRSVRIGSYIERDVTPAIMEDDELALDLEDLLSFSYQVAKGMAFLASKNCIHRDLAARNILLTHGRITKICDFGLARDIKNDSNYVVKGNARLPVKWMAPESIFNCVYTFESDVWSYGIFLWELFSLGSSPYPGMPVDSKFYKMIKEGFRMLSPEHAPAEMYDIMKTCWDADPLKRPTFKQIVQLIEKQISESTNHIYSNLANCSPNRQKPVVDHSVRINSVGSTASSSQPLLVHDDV
Chain of off-target kinases (Homo sapiens, UniProt P06241) (P06241 whole entry): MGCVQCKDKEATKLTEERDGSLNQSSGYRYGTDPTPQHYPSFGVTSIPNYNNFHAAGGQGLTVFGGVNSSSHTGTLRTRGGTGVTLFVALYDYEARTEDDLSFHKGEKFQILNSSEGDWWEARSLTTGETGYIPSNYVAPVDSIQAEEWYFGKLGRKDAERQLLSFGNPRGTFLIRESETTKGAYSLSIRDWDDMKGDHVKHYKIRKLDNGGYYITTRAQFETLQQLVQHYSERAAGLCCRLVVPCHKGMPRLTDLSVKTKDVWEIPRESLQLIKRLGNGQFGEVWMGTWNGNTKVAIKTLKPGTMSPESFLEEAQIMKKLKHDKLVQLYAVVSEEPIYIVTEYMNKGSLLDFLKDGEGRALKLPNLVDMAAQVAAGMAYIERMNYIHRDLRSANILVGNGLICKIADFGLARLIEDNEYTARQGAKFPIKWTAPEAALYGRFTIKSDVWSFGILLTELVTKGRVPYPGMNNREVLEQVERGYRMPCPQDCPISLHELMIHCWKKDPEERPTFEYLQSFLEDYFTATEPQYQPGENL

`N#Cc1cc(-c2ncnc(Nc3ccc(N4CCN(C5COC5)CC4)cc3)n2)ccc1OC1CCOCC1` [Compound 1, 5-(4-((4-(4-(oxetan-3-yl)piperazin-1-yl)phenyl)amino)-1,3,5-triazin-2-yl)-2-((tetrahydro-2H-pyran-4-yl)oxy)benzonitrile]: the inhibition (as a rule, how much of the control response was suppressed) worked out at 18% in assay [1] (FYN A, LanthaScreen Binding, read-out: % Inhibition Avg); 85% in assay [1] (FYN, ATP Km app, ZLYTE, read-out: % Inhibition 1); 85% in assay [1] (FYN, ATP Km app, ZLYTE, read-out: % Inhibition 2); 85% in assay [1] (FYN, ATP Km app, ZLYTE, read-out: % Inhibition Avg); 19% in assay [2] (read-out: % Inhibition 1); 18% in assay [2] (read-out: % Inhibition 2). Moreover, the inhibition in assay [2] (read-out: % Inhibition Avg) came to 18%; in assay [3] (read-out: % Inhibition 1), 46%; in assay [3] (read-out: % Inhibition 2), 49%; in assay [3] (read-out: % Inhibition Avg), 47%; in assay [4] (read-out: % Inhibition 1), 12%; in assay [4] (read-out: % Inhibition 2) it was 11%. For the same compound, the inhibition in assay [4] (read-out: % Inhibition Avg) was 12%; in assay [5] (read-out: % Inhibition 1), 17%; in assay [5] (read-out: % Inhibition 2), 20%; in assay [5] (read-out: % Inhibition Avg) it was 18%.
